Laboratory results from patent publication US20200199541A1, “BLOOD VESSEL ORGANOID, METHODS OF PRODUCING AND USING SAID ORGANOIDS” (IMBA - INSTITUT FÜR MOLEKULARE BIOTECHNOLOGIE GMBH, priority 2017, published 2020).
Entries after “also recorded” stand apart in the source; their conditions may differ.

Assays:
[1] = test system: human blood vessel organoids; assay: Diabetic basement membrane thickening (Collagen IV) in human blood vessel organoids cultured in diabetic medium; type: cell-based; conditions: for diabetic basement membrane thickening (Col IV) on blocking Notch pathway members: 2 weeks diabetic media (hyperglycemia + IL-6 + TNF-a), blocking antibodies or non-crosslinked recombinant proteins; for increase of Col IV+ basement membrane under diabetic conditions: 75 mM Glucose, 1 ng/mL IL-6, 1 ng/mL TNF-α, 10 μM RO4929097, 1 μM Dehydroxy-LY411575, 1 μM LY411575; for high glucose/TNFα/IL6-induced thickening of the basal blood vessel membrane (Collagen IV): diabetic medium 75 mM Glucose, 1 ng/mL TNFα, 1 ng/mL IL-6, drug doses (DAPT 25 μM)
Procedure: Modeling diabetic vasculopathy in human vascular organoids. Established endothelial networks in vascular organoids were cultured in a non-diabetic control medium (17 mM Glucose) or diabetic medium (75 mM Glucose, in the presence of absence of human TNFα (1 ng/mL, Invitrogen PHC3011) and/or IL-6 (1 ng/mL, Peprotech 200-06)) for up to 3 weeks before the basement membrane was investigated by Collagen type IV immunostaining and electron microscopy. D-Mannitol was used in non-diabetic media to control for hyperosmotic effects. For basement membrane quantifications, acquired z-stacks were analysed and the thickness of ColIV coats around luminal structures were measured using ImageJ software. For drug treatment, organoids were exposed to diabetic medium (75 mM Glucose, 1 ng/mL human TNFα, and 1 ng/mL IL-6) in the presence or absence of the following drugs: 2,4-Thiazolidinedione (5 mM, Abcam ab144811), Metformin (5 mM, Abcam ab120847), Acarbose (80 μg/mL, Sigma A8980), […] (100 μM, Sigma N3538), Diphenyleneiodonium (10 μM), Glimepiride (30 nM, Sigma G2295), Pioglitazone (10 μM, Sigma E6910). The following small molecule inhibitors were used: N-Acetyl-L-cysteine (500 μM, Sigma, A7250), CHIR99021 (10 μM, Tocris 4423), Goe6976 (100nM, Merck U51365250), MK2206 (10 μM, EubioS1078), QNZ (10 μM, Eubio […]), 5B203580 (10 μM, Eubio […]), SCH772984 (500 nM, Eubio […], Calbiochem 688000), DAPT (25 μM, Sigma D5942), 5B431542 (10 μM, Abcam ab120163).

[2] = test system: human vascular organoid transplants; assay: Human CD31+ blood vessel density of vascular organoid transplants in diabetic STZ mice; type: in vivo, mouse; conditions: diabetic STZ NSG mice, DAPT 5 mg/kg
Procedure: (§1) Modeling diabetic vasculopathy in human vascular organoids in vivo. Immunodeficient NSG mice carrying human vascular organoid transplants were daily i.p. injected with 40 mg/kg Streptozotocin (STZ) (Merck, 572201) for 5 consecutive days. Every day, STZ was freshly dissolved in citrate buffer (pH4.6) and immediately used. Diabetes was confirmed (blood glucose >300 mg/dL) by measuring non-fasting glucose using the OneTouch UltraEasy system (Lifetouch, AW 06637502C). DAPT (Selleckchem 52215) was dissolved in ethanol and injected with 90% cornoil for 5 consecutive days at 5 mg/kg with 2 days of no treatment per week. Anti-Notch3 blocking antibodies (R&D AF1559) were injected 3 time/week at lmg/kg. For quantifying vessel leakage, the FITC-Dextran^+ area was measured and normalized to the area of perfused human blood vessels (hCD31^+) using the FIJI software. This ratio was then further normalized to control non-diabetic mice. Permeability of long-term DAPT treated vessels were measured after 2 days of treatment stop to avoid measuring acute effects of DAPT on vessel permeability.

[3] = test system: human blood vessel organoids; assay: Diabetic basement membrane thickening (Collagen IV) in human blood vessel organoids cultured in diabetic medium; type: cell-based; conditions: diabetic cocktail, indicated DAPT doses (FIG. 5)
[4] = test system: human vascular organoid transplants; assay: Vessel leakage (FITC-Dextran extravasation) of human vascular organoid transplants in diabetic STZ mice; type: in vivo, mouse; conditions: diabetic STZ NSG mice, DAPT 5 mg/kg
Procedure: as §1

## D114: non-crosslinked recombinant protein (Notch ligand, Delta-like protein 4) used as blocker
[1]
  diabetic basement membrane thickening (Col IV) on blocking Notch pathway members: completely blocked basement membrane thickening

## C[C@H](NC(=O)Cc1cc(F)cc(F)c1)C(=O)N[C@@H]1C(=O)N(C)c2ccccc2-c2ccccc21 [Dehydroxy-LY411575]
[1]
  increase of Col IV+ basement membrane under diabetic conditions: prevent the increase of basement membrane (Col IV) under diabetic conditions

## CC(C)[C@H]1CC[C@H](C(=O)N[C@H](Cc2ccccc2)C(=O)O)CC1 [nateglindine, Nateglindine]
[1]
  high glucose/TNFα/IL6-induced thickening of the basal blood vessel membrane (Collagen IV): none of the medicines that we tested

## O=C1CSC(=O)N1 [thiazolidinedione, 2,4-Thiazolidinedione]
[1]
  high glucose/TNFα/IL6-induced thickening of the basal blood vessel membrane (Collagen IV): none of the medicines that we tested

## CCC1=C(C)CN(C(=O)NCCc2ccc(S(=O)(=O)NC(=O)N[C@H]3CC[C@H](C)CC3)cc2)C1=O [glimepiride, Glimepiride]
[1]
  high glucose/TNFα/IL6-induced thickening of the basal blood vessel membrane (Collagen IV): none of the medicines that we tested

## C[C@H](NC(=O)[C@@H](O)c1cc(F)cc(F)c1)C(=O)N[C@@H]1C(=O)N(C)c2ccccc2-c2ccccc21 [LY411575]
[1]
  increase of Col IV+ basement membrane under diabetic conditions: prevent the increase of basement membrane (Col IV) under diabetic conditions

## C[C@H](NC(=O)Cc1cc(F)cc(F)c1)C(=O)N[C@H](C(=O)OC(C)(C)C)c1ccccc1 [DAPT]
[2]
  human blood vessel (CD31+) density in transplanted vascular organoids: restores human vessel density; also recorded: rescued the loss of CD31^+ human blood vessels
[3]
  dose dependence of prevention of basement membrane thickening (ColIV thickness): dose dependent; also recorded: dose-dependent
[1]
  high glucose/TNFα/IL6-induced thickening of the basal blood vessel membrane (Collagen IV): abrogates thickening of the vascular basement membrane; also recorded: can prevent diabetic vascular basement membrane thickening; also recorded: completely abrogated the expansion of collagen IV and basal membrane thickening; also recorded: nearly completely prevented the thickening of the basal membrane
[4]
  vessel permeability / leakage (FITC-Dextran extravasation): normalized diabetic vessel permeability; also recorded: excessive blood vessel leakiness was rescued

## CN(C)C(=N)N=C(N)N [metformin, Metformin]
[1]
  high glucose/TNFα/IL6-induced thickening of the basal blood vessel membrane (Collagen IV): none of the medicines that we tested

## CC(C)(C(=O)NCC(F)(F)C(F)(F)F)C(=O)N[C@@H]1C(=O)Nc2ccccc2-c2ccccc21 [RO4929097]
[1]
  increase of Col IV+ basement membrane under diabetic conditions: prevent the increase of basement membrane (Col IV) under diabetic conditions

## c1ccc2c(c1)[I+]c1ccccc1-2 [diphenyleneiodonium, Diphenyleneiodonium]
[1]
  high glucose/TNFα/IL6-induced thickening of the basal blood vessel membrane (Collagen IV): none of the medicines that we tested

B1: D111: non-crosslinked recombinant protein (Notch ligand) used as blocker (protein, UniProt O00548 18-723, looked up)
Delta-like protein 1: QVWSSGVFELKLQEFVNKKGLLGNRNCCRGGAGPPPCACRTFFRVCLKHYQASVSPEPPCTYGSAVTPVLGVDSFSLPDGGGADSAFSNPIRFPFGFTWPGTFSLIIEALHTDSPDDLATENPERLISRLATQRHLTVGEEWSQDLHSSGRTDLKYSYRFVCDEHYYGEGCSVFCRPRDDAFGHFTCGERGEKVCNPGWKGPYCTEPICLPGCDEQHGFCDKPGECKCRVGWQGRYCDECIRYPGCLHGTCQQPWQCNCQEGWGGLFCNQDLNYCTHHKPCKNGATCTNTGQGSYTCSCRPGYTGATCELGIDECDPSPCKNGGSCTDLENSYSCTCPPGFYGKICELSAMTCADGPCFNGGRCSDSPDGGYSCRCPVGYSGFNCEKKIDYCSSSPCSNGAKCVDLGDAYLCRCQAGFSGRHCDDNVDDCASSPCANGGTCRDGVNDFSCTCPPGYTGRNCSAPVSRCEHAPCHNGATCHERGHRYVCECARGYGGPNCQFLLPELPPGPAVVDLTEKLEGQGGPFPWVAVCAGVILVLMLLLGCAAVVVCVRLRLQKHRPPADPCRGETETMNNLANCQREKDISVSIIGATQIKNTNKKADFHGDHSADKNGFKARYPAVDYNLVQDLKGDDTAVRDAHSKRDTKCQPQGSSGEEKGTPTTLRGGEASERKRPDSGCSTSKDTKYQSVYVISEEKDECVIATEV
[1]
  diabetic basement membrane thickening (Col IV) on blocking Notch pathway members: did not impact on the diabetes mediated thickening of the vascular basement membrane
